This experiment concerns HIV-1 (H9IIIB strain). The experiment in a line: Cell-based HIV infection assay using a reporter (Cell-Based), MT4-GFP cells. The settings on record: 50% normal human serum, mean of at least two independent experiments, read-out: Cell-based IP. The gist of the method:
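MT4-GFP cells (HIV LTR-driven GFP) infected 24 h with HIV-1 H9IIIB at low MOI, then washed and plated with compounds in RPMI + 50% normal human serum, 0.4% DMSO final. Green cells counted at 24 and 48 h; R0 = 48 h/24 h ratio, inhibition normalized to DMSO and triple-drug control; IC50 from 4-parameter fit.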

Where [1] appears, read: Human immunodeficiency virus 1, MT4-GFP cells infected with HIV-1 H9IIIB.

pIC50: −log10 of the molar value. Like-named read-outs stand apart in the source and are kept apart here.

As for `COC(=O)N[C@H](C(=O)NC1CCCC1CC[C@H]1CNCCN1S(=O)(=O)c1ccccc1)C(c1ccc(Cl)cc1)C1CCOCC1` (stereo partly drawn) [Example 356, methyl ((1R,2S)-1-(4-chlorophenyl)-3-oxo-3-((2-(2-((S)-1-(phenylsulfonyl)piperazin-2-yl)ethyl)cyclopentyl)amino)-1-(tetrahydro-2H-pyran-4-yl)propan-2-yl)carbamate], under setting [1], the pIC50 was 7.55.
Still for that read-out and setting: the figure for `COC(=O)NC(C(=O)NC1CC(O)CC1CC[C@H]1CNCCN1S(=O)(=O)c1ccccc1)C(c1ccc(F)cc1)c1ccc(F)cc1` (stereo partly drawn) [Example 357, Methyl ((2R)-1,1-bis(4-fluorophenyl)-3-((4-hydroxy-2-(2-((S)-1-(phenylsulfonyl)piperazin-2-yl)ethyl)cyclopentyl)amino)-3-oxopropan-2-yl)carbamate] is 6.09; for `N[C@H](C(=O)NC1CC(F)(F)CC1CC[C@H]1CNCCN1S(=O)(=O)c1ccccc1)[C@H](c1ccc(Cl)cc1)C1CCOCC1` (stereo partly drawn) [Example 360, (betaS)-4-chloro-N-(4,4-difluoro-2-{2-[(2S)-1-(phenylsulfonyl)piperazin-2-yl]ethyl}cyclopentyl)-beta-(tetrahydro-2H-pyran-4-yl)-L-phenylalaninamide] it is 6.21.
For the compound `N[C@H](C(=O)NC1CC(F)(F)CC1CC[C@H]1CNCCN1S(=O)(=O)c1ccccc1)[C@H](c1ccc(Cl)cc1)C1CCOCC1` (stereo partly drawn) [Example 361, (betaS)-4-hcloro-N-(4,4-difluoro-2-{2-[(2S)-1-(phenylsulfonyl)piperazin-2-yl]ethyl}cyclopentyl)-beta-(tetrahydro-2H-pyran-4-yl)-L-phenylalaninamide], the pIC50 (MT4-GFP cells infected with HIV-1 H9IIIB) was 6.06.
Consider `N[C@H](C(=O)Nc1cccc(F)c1CC[C@H]1CNCC2(CC2)N1S(=O)(=O)c1ccccc1)C(c1ccc(F)cc1)c1ccc(F)cc1` [Example 366, (S)-2-amino-N-(3-fluoro-2-(2-((S)-4-(phenylsulfonyl)-4,7-diazaspiro[2.5]octan-5-yl)ethyl)phenyl)-3,3-bis(4-fluorophenyl)propanamide], for which, under setting [1], the pIC50 was 7.89.
Regarding `CS(=O)(=O)N1[C@@H](CCc2c(F)cccc2NC(=O)[C@@H](N)C(c2ccc(F)cc2)c2ccc(F)cc2)CNCC12CC2` [Example 367, (S)-2-amino-N-(3-fluoro-2-(2-((S)-4-(methylsulfonyl)-4,7-diazaspiro[2.5]octan-5-yl)ethyl)phenyl)-3,3-bis(4fluorophenyl)propanamide], the pIC50 under setting [1] was 7.33.
Regarding `N[C@H](C(=O)Nc1cccc(F)c1CC[C@H]1CNCC2(CC2)N1C(=O)COc1ccccc1)C(c1ccc(F)cc1)c1ccc(F)cc1` [Example 368, (S)-2-amino-N-(3-fluoro-2-(2-((S)-4-(2-phenoxyacetyl)-4,7-diazaspiro[2.5]octan-5-yl)ethyl)phenyl)-3,3-bis(4-fluorophenyl)propanamide], the pIC50 under setting [1] is 5.82.
Same read-out and setting: the figure for `COC(=O)N[C@H](C(=O)Nc1cccc(F)c1CC[C@H]1CNCC2(CC2)N1S(=O)(=O)c1ccccc1)[C@@H](c1ccc(Cl)cc1)C1CCOCC1` [Example 369, ((1R,2S)-1-(4-chlorophenyl)-3-((3-fluoro-2-(2-((S)-4-(phenylsulfonyl)-4,7-diazaspiro[2.5]octan-5-yl)ethyl)phenyl)amino)-3-oxo-1-(tetrahydro-2H-pyran-4-yl)propan-2-yl)carbamate] is 7.96; for `C[C@@H]1C[C@H]([C@H](c2ccc(F)cc2)[C@H](N)C(=O)Nc2cccc(F)c2CC[C@H]2CNC[C@@H](C)N2S(=O)(=O)c2ccccc2)C[C@H](C)O1` [Example 370, (2S,3R)-2-amino-3-((2R,4r,6S)-2,6-dimethyltetrahydro-2H-pyran-4-yl)-N-(3-fluoro-2-(2-((2S,6R)-6-methyl-1-(phenylsulfonyl)piperazin-2-yl)ethyl)phenyl)-3-(4-fluorophenyl)propanamide] it is 8.12.
